# Active and inactive are the calls of the source.
# Key:
# [1] = P. falciparum late gametocyte killing, dose response, luminescence (AID 1117278); type: functional, cell-based;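 note: gametocytes exposed to compound for 24 hours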
# [2] = Jurkat T cell cytotoxicity, dose response, cytotoxicity control for P. falciparum gametocyte viability project, luminescence (AID 1117277); type: functional, cell-based;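 note: potency reflects loss of cellular ATP meaning fewer viable cells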
# Estrogen receptor = molecular target: T1, Estrogen receptor (Homo sapiens, UniProt P03372);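 note: potency for inhibiting coactivator peptide recruitment to the receptor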
# T1 sequence (P03372 whole entry): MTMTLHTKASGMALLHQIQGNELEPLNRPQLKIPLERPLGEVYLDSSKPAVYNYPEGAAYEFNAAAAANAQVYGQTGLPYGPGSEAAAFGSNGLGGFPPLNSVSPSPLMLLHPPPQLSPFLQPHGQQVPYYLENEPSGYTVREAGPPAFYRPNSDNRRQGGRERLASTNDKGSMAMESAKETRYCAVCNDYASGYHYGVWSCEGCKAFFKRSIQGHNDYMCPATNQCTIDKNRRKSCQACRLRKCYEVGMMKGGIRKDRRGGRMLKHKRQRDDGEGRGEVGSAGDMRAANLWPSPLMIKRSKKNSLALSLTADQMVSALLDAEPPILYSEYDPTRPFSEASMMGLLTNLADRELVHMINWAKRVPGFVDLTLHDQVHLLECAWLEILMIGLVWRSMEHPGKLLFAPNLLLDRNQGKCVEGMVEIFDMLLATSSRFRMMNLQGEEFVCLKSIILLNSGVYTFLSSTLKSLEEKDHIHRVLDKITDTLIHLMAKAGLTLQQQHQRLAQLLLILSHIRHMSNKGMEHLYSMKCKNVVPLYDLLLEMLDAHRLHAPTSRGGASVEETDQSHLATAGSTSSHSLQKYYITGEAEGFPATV
# Protein Tat = molecular target: T2, Protein Tat (Human immunodeficiency virus type 1 group M subtype B (isolate HXB2)(HIV-1), UniProt P04608); type: functional;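 note: tat binding to TAR RNA read out by fluorescence polarization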
# T2 sequence (P04608 whole entry): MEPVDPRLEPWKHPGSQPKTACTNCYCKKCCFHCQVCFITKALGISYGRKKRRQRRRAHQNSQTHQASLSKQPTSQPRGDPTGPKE
# [3] = growth suppression of PTEN-null colon cells, dose response, cell-based, HCT116 PTEN knockout (AID 1047); type: functional;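 note: HCT116 colon tumor cells with PTEN knocked out; cells exposed to compound for 60 hours before readout; potency for loss of cell viability measured by luminescence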
# [4] = growth suppression of beta-catenin-knockout colon cells, dose response, cell-based, HCT116, human colon tumor (AID 1045); type: functional;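 note: HCT116 colon tumor cells with beta catenin knocked out; cells exposed to compound for 60 hours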
# fMet-Leu-Phe receptor = molecular target: T3, fMet-Leu-Phe receptor (Homo sapiens, UniProt P21462); test: FPR ligands, dose response (AID 519); type: functional
# T3 sequence (P21462 whole entry): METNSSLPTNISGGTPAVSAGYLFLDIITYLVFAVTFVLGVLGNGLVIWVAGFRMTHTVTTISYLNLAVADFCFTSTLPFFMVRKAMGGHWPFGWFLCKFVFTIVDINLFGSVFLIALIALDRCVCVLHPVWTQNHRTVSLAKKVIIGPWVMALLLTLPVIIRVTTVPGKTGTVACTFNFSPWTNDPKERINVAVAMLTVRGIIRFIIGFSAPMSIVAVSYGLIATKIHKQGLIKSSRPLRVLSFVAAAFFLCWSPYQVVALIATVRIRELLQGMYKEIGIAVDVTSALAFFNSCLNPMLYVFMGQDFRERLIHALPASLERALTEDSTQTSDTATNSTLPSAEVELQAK
# [5] = molecular target: T4, Mannose-6-phosphate isomerase (Homo sapiens, UniProt P34949); test: inhibitors of human PMI, primary screen, biochemical, fluorescence intensity, coupled assay (AID 1209)
# T4 sequence (P34949 whole entry): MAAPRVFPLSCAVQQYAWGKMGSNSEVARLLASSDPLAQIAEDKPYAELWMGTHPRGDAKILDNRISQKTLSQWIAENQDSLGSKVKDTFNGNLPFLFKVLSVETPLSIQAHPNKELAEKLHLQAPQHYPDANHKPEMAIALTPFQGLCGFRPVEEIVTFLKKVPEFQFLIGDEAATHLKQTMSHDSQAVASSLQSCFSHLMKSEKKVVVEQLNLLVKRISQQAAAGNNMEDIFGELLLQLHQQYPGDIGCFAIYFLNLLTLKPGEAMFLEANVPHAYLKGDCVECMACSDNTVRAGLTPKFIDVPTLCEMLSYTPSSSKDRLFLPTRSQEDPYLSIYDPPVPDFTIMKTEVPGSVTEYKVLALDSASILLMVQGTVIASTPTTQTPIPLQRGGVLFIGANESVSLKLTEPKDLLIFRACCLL
# Streptokinase A = molecular target: T5, Streptokinase A (Streptococcus pyogenes serotype M1, UniProt P10520); test: S. pyogenes streptokinase expression inhibitors, potency, dose response, plasminogen activation absorbance, OD405 (AID 1914); type: functional, Streptococcus pyogenes M1 GAS;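 note: secreted streptokinase activity via plasminogen activation per viability signal from cell pellet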
# T5 sequence (P10520 whole entry): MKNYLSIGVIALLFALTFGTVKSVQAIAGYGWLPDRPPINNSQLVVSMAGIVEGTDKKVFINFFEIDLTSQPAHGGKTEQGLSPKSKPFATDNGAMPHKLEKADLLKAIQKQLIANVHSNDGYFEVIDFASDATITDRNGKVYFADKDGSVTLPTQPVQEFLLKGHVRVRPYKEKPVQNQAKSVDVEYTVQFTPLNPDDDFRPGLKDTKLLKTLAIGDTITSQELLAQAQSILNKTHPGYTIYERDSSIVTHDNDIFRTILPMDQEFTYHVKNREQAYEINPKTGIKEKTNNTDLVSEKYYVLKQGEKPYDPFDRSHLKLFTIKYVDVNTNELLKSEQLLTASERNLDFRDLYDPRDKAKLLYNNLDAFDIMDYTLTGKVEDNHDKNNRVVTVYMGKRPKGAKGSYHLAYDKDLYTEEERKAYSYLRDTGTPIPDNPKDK
# H9c2 = test: cells; type: functional, cell-based; details: Rattus norvegicus, H9c2, Myocardium;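 note: confirmatory concentration-response retest of ultra-high-throughput screening hits for modulation of myocardial damage; cell death induced by hydrogen peroxide oxidative stress; compound pretreatment for 60 min then peroxide exposure for 2 h; potency is for protecting the cells against peroxide damage rather than for killing them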
# Streptococcus = test: Group A Streptococcus viability loss, dose response, counter-screen for streptokinase expression inhibitor project, luminescence, BacTiterGlo (AID 1915); type: functional, organism-based;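 note: potency for reduction of bacterial viability or growth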
# [6] = system: Streptococcus sp. 'group A'; test: growth inhibition of control SK(-) GAS strain, dose response, counter-screen for streptokinase expression inhibitor project, luminescence, kanamycin, BacTiterGlo, confirmation (AID 1900); type: functional, organism-based
# Albumin = Albumin (Bos taurus, UniProt P02769); test: Counterscreen for inhibitors of T-cell receptor (TCR)-CD3 interaction: Fluorescence-based biochemical high throughput dose response assay to identify inhibitors of T-cell receptor (TCR)-CD3 interaction using a TAMRA-labeled BSA probe.; type: functional
# [7] = molecular target: Potassium channel subfamily K member 9 (Homo sapiens, UniProt Q9NPC2); test: TASK3 (KCNK9) channel inhibitors, thallium flux, SAR follow-up, selectivity assay for TASK1 inhibitor project, cell-based, FluxOR thallium flux, concentration-response (AID 652211); type: functional;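 note: potency is for inhibitors of the channel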
# Cytochrome P450 2C9 = Cytochrome P450 2C9 (Homo sapiens, UniProt P11712)
# [8] = P. falciparum Dd2 growth inhibitors, dose response, SYBR Green, dry powder samples (AID 1159566); type: functional, cell-based;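 note: potency for growth inhibition with lower SYBR green DNA signal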
# [9] = P. falciparum Dd2 growth inhibitors, dose response, SYBR Green, cherry-picked samples (AID 1159567); type: functional, cell-based
# [10] = HepG2 cell cytotoxicity, dose response, cytotoxicity control, plate reader, dry powder samples (AID 1159569); type: functional, cell-based;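 note: inhibitor potency with signal falling toward the positive control level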
# [11] = P. falciparum 3D7-ScDHODH growth inhibitors, dose response, SYBR Green, dry powder samples (AID 1159570); type: functional, cell-based;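 note: parasite growth measured after 72 hours of compound exposure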
# [12] = P. falciparum ATP4 D1247Y mutant growth inhibitors, dose response, NITD609-resistant line, SYBR Green, dry powder (AID 1159571); type: functional, cell-based;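 note: parasites synchronized at ring stage by sorbitol before testing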
# Chain of Albumin (P02769 whole entry): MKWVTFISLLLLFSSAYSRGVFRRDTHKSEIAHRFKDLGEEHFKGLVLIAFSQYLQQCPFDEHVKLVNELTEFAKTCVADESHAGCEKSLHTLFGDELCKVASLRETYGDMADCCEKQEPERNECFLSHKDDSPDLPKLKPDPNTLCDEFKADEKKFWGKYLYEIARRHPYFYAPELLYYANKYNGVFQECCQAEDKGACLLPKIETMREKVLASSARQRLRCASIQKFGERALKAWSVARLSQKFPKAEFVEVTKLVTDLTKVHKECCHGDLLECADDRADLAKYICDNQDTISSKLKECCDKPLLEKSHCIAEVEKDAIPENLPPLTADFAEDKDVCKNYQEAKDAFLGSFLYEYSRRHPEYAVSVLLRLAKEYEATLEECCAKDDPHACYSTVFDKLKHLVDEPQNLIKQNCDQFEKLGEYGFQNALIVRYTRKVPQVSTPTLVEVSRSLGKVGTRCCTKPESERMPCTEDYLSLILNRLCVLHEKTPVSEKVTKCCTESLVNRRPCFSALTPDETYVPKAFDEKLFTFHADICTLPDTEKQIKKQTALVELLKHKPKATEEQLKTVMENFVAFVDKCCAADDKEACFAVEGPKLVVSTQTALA
# Chain of Potassium channel subfamily K member 9 (Q9NPC2 whole entry): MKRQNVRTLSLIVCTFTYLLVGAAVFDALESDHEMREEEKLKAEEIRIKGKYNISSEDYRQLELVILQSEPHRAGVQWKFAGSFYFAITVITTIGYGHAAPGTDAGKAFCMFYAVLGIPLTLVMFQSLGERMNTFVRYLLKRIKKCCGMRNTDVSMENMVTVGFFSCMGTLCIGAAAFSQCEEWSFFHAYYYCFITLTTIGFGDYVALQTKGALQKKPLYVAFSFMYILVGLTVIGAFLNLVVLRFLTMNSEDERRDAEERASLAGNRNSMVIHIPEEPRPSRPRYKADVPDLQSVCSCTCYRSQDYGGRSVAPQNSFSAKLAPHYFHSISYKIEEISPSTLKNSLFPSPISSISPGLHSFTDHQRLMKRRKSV
# Chain of Cytochrome P450 2C9 (P11712 whole entry): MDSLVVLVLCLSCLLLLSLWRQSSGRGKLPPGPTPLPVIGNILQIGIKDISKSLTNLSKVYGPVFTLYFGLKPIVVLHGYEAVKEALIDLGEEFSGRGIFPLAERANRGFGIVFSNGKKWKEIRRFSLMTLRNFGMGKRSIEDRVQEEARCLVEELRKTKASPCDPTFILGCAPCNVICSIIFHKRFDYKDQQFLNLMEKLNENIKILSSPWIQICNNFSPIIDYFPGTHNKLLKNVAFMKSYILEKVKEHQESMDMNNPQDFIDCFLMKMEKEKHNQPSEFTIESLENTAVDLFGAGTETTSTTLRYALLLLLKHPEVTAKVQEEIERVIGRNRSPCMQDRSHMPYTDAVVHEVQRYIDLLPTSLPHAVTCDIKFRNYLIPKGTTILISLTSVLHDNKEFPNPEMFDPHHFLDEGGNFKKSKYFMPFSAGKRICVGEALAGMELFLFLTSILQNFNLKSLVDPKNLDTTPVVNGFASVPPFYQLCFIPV
structure (smiles),measurement,setting,value
O=C(CSc1nnc(-c2ccc(F)cc2)o1)NC1CCCCC1,IC50,[1],> 109 µM (inactive)
same,IC50,[2],> 83.3 µM (inactive)
Cc1nn(Cc2ccccc2)c(C)c1NC(=O)CSc1nnc(-c2cc(Cl)ccc2O)n1C,IC50,Estrogen receptor,> 50 µM (not active)
CCc1ccc(CC)c(S(=O)(=O)Nc2ccc(C(=O)O)c(O)c2)c1,IC50,Protein Tat,> 100 µM (active)
Cc1cccc(N2CCN(c3nc4ccccc4n4cnnc34)CC2)c1C,EC50,[3],23.4 µM (active)
same,IC50,Estrogen receptor,38.8 µM (not active)
same,EC50,[4],25.4 µM (active)
C=CCCC(=O)Nc1ccc(Br)cn1,IC50,[1],> 109 µM (inactive)
same,IC50,[2],> 83.3 µM (inactive)
O=C(NCCCN1CCN(c2ccc(F)cc2)CC1)c1cccc(N2CCCC2=O)c1,Ki,fMet-Leu-Phe receptor,> 66.7 µM (inactive)
N#C/C(=C\c1cccnc1)C(=O)Nc1ccccc1,IC50,[5],> 50 µM (not active)
O=S1(=O)OCCC(c2ccccc2)N1Cc1ccccc1 (centres undefined),IC50,[1],> 109 µM (inactive)
same,IC50,[2],> 83.3 µM (inactive)
Cc1cc(C)c(C)c(S(=O)(=O)N2CCC(C(=O)NNC(=O)c3ccccc3O)CC2)c1C,EC50,Streptokinase A,> 150 µM (not active)
same,IC50,H9c2,31.7 µM (inactive)
same,EC50,Streptococcus,> 150 µM (not active)
same,EC50,[6],17 µM (active)
same,IC50,Albumin,> 94.1 µM (inactive)
COc1ccc(-c2nc3oc4cc(OC)ccc4c(=O)c3c(=O)n2Cc2ccco2)cc1,IC50,Protein Tat,> 100 µM (active)
O=C1NC(=S)NC1=Cc1ccco1,IC50,Albumin,> 94.1 µM (inactive)
CCc1ccc(N2C(=O)CC(Cn3nc(C)cc3C)C2=O)cc1 (centres undefined),IC50,[1],> 109 µM (inactive)
same,IC50,[2],> 83.3 µM (inactive)
Cc1ccc(S(=O)(=O)N2CCC(C(=O)NNC(=O)c3ccccc3O)CC2)cc1,IC50,Albumin,> 94.1 µM (inactive)
CC(C)Oc1ccccc1C(=O)Nc1cccc(NC(=O)c2ccccc2OC(F)(F)F)c1,IC50,[7],0.07 µM (active)
COc1ccccc1C(=O)Nc1cccc(NC(=O)c2ccccc2C(C)C)c1,IC50,[7],0.74 µM (active)
CCC(CC)C(=O)/N=c1\c2cnn(-c3ccccc3)c2[nH]c(=O)n1-c1ccccc1,AC50,Cytochrome P450 2C9,28.2 µM (inconclusive)
same,Ki,fMet-Leu-Phe receptor,49.8 µM (inactive)
CC1(C)CC(=O)C(/C=N/c2ccc3[nH]ncc3c2)=C(O)C1,IC50,[5],> 50 µM (not active)
Cc1ccc(/C=N/n2c(S)nnc2-c2ccncc2)cc1,IC50,[5],18.3 µM (active)
CC(C)CC#Cc1ccc([C@H]2[C@@H](CO)N3C(=O)CN(C(=O)Cc4ccccc4)C[C@H]23)cc1,AC50,[8],0.836 µM (active)
same,AC50,[9],0.424 µM (active)
same,AC50,[10],26.3 µM (active)
same,AC50,[11],2.02 µM (active)
same,AC50,[12],1.09 µM (active)
CO[C@@H]1CN(C)C(=O)c2cc(NC(=O)c3ccccc3F)ccc2OC[C@H](C)N(C(=O)c2ccccc2F)C[C@@H]1C,AC50,[8],1.1 µM (active)
same,AC50,[9],2.47 µM (active)
same,AC50,[10],> 100 µM (inactive)
same,AC50,[11],2.87 µM (active)
same,AC50,[12],1.64 µM (active)
O=S(=O)(c1ccccc1)N1C[C@@H]2N[C@H](C1)[C@H]2c1ccc(-c2ccc(F)cc2)cc1,AC50,[8],1.47 µM (active)
same,AC50,[9],1.54 µM (active)
same,AC50,[10],14.3 µM (active)
same,AC50,[11],1.27 µM (active)
same,AC50,[12],1.85 µM (active)
Cc1ccccc1S(=O)(=O)N1CC(=O)N2[C@H](CO)[C@H](c3ccc(C#CCC4CCCC4)cc3)[C@H]2C1,AC50,[8],0.411 µM (active)
same,AC50,[9],1.9 µM (active)
same,AC50,[10],26.5 µM (active)
same,AC50,[11],1.2 µM (active)
same,AC50,[12],1.42 µM (active)
